# Measurements reported in the NIST ThermoML archive (doi:10.1016/j.jct.2006.07.013).
# Numbers after ± are expanded uncertainties.
# Columns and labels:
# [1] = 298.15 K, 101.33 kPa, Liquid; for speed of sound: Sing-around technique in a fixed-path interferometer
# [2] = refractive index (Na D-line) (dimensionless); conditions: 298.15 K, 101.33 kPa, Liquid
SMILES,mass density [1] [kg/m3],speed of sound [1] [m/s],refractive index ([2]; Standard Abbe refractometry),mass density ([1]; Vibrating tube method) [kg/m3],refractive index ([2]; refractometer)
CCCCOC(C)=O [butyl ethanoate],876.35 ± 1.9,1193.1 ± 2.1,1.39191 ± 0.00051,,
COC(C)=O [methyl ethanoate],927.36 ± 0.65,1154 ± 1.2,1.35893 ± 0.00037,,
CCCCCCC(=O)OC [methyl heptanoate],,1254.6 ± 1.2,,875.88 ± 0.23,1.40945 ± 0.00021
Cc1ccccc1 [toluene],862.34 ± 0.18,1306.3 ± 0.7,1.4939 ± 0.00031,,
